The text below walks through data of patent US20070037833A1, “Compositions and methods for inhibiting neurodegeneration” (priority 2005, published 2007).

The test system of one data set is Akt. In words: Immunoblot for phosphoAKT in spinal cord cultures. It counts as cell-based, rat. (In general: Immunoblotting shows a protein as a band on a membrane.)
The conditions of data set [1]: Robeva et al.; cited from earlier work.
A further data set concerns MAP kinase. Briefly: Immunoblot for phosphoMAPK in spinal cord cultures. Format: cell-based, rat. As for the experimental part:
(§1) Cells were lysed in 1% NP-40 lysis buffers containing protease inhibitors, subjected to SDS-PAGE and immunoblotted as previously described (Fryer et al., 1999; Fryer et al., 2000). For immunoprecipitation, lysates from 60 mm dishes were pre-cleared by incubation with protein A beads (Santa Cruz), incubated with primary antibody (4 μg/ml)×2 hours then 50 μL of beads added and incubated overnight with gentle agitation at 4° C. Beads were pelleted, washed 5× with 10 mM Tris pH 7.4+0.5 mM EGTA+0.5 mM EDTA+0.1% NP40 before elution in 1× Laemelli sample buffer. Antibody sources: BD Transduction Labs—TrkB and MAP Kinase used at 1:500, Cell Signaling—Akt 1:1000; phosphoTrk (tyr490) 1:1000; phospho p42/44 MAP Kinase (thr 202/tyr204) 1:1000; phosphoAkt (ser473) 1:500; IGFI antibody (tyr 1131) 1:500. Upstate—adenosine A2a 1:1000. Sigma—actin 1:200. Biosource—active src (clone 28) 1:200.
(§2) We next asked about the effect of the adenosine A2 receptor antagonism on Trk signaling. Cultures of spinal cord cells (grown in the presence of a cocktail of trophic factors including 10 ng/ml BDNF) received KW6002 (1 μM), MRS1754 (50 nM) or vehicle (DMSO 0.1%) and 24 hrs. later, lysates were prepared for immunoblots for Trk and the MAP kinase downstream signaling module (FIG. 2, panel a). Immunoblots for phosphoTrk and phosphoMAPK were employed to monitor the state of activation of these proteins.
(§3) We followed up these observations by determining the effect of enprofylline on Trk signaling and determined the extent to which the resultant biochemical changes mimic the effects of direct pharmacological Trk antagonism with CEP4416. […] The effect of drug treatment on AKT was particularly marked. […] To determine the specificity of these agents, we examined their effect on Insulin-like growth factor 1 (IGF1) signaling through the IGF receptor tyrosine kinase (IGFR). […] It is unlikely that phosphodiesterase activity of enprofylline can explain these observations as increased cAMP levels enhance, not suppress, TrkB activation (Boulanger and Poo, 1999; Ji et al., 2005).

Data set [2] relates to IGF receptor tyrosine kinase (IGFR). Briefly: Immunoblot for phospho-IGFR in spinal cord cultures. It counts as cell-based, rat. The method, then:
as §1, §3

Data set [3] concerns motor neurons in embryonic rat spinal cord cultures. Briefly: Excitotoxicity assay (100 μM kainic acid) in mixed spinal cord cultures. It counts as cell-based. The method, then:
Unless otherwise specified, BDNF was added to all cultures.
Many previous in vitro investigations have identified motor neurons in mixed spinal cord cell culture by immunostaining for non-phosphorylated neurofilaments (or peripherin) and restricting analysis to cells with a soma diameter of 25 μm or greater (Carriedo et al., 2000; Hu and Kalb, 2003). We wanted to confirm the validity of this approach using an independent method for determining whether a given cell is a motor neuron. To specifically identify motor neurons in our cultures we purified these cells by metrizamide gradient and immunopanning techniques (Henderson et al., 1993; Fryer et al., 1999), live-labeled them with CM-DiI, and added these fluorescently-tagged, bona fide motor neurons to mixed cell cultures at the time of initial plating. All CM-DiI labeled cells stained for motor neurons markers such as non-phosphorylated neurofilament H (using antibody, SMI-32), peripherin, choline acetyl transferase (ChAT) and islet ½ (FIG. 1, panel a.). We then subjected spinal cord cultures to an excitotoxic insult and determined motor neuron survival using multiple methods for identifying motor neurons. […] Since all SMI-32 (+) cells with cell body diameter of 25 μm or greater were CM-DiI (+) and all CM-DiI (+) cells were SMI-32 (+), for the remainder of the studies herein, we could confidently study motor neuron death in vitro by counting SMI-32 (+) cells with a cell body diameter of 25 μm or greater.

Data set [4] relates to motor neurons expressing G85R SOD. Briefly: Motor neuron death from HSV-expressed mutant SOD in spinal cord cultures. It counts as cell-based, rat. To be noted: 6 days post-infection; treatment daily or every other day. An excerpt:
Various cDNAs were cloned into the PrpUC amplicon plasmid and were used to generate recombinant HSV as previously described (Neve et al., 1997). The titer of viruses used in these studies were routinely 3-5×10^7 plaque-forming units/ml. The cDNA for wild type/mutant SOD and wild type/mutant p150^glued were gifts of D. Borchelt and E. Holzbaur, respectively. The K295R mutant version of chick src was a gift of J. Brugge.
Mutations in superoxide dismutase (SOD) or the p150^glued subunit of dynactin are known to account for a familial form of ALS in a subpopulation of individuals (Rosen, 1993; Puls et al., 2003; Bruijn et al., 2004). We inquired whether expression the mutant forms of SOD or p150^glued caused motor neuron death in vitro and if Trk antagonism was neuroprotective. Recombinant herpes simplex viruses (HSVs) were generated that expressed wild type or mutant form of SOD (G85R) and wild type or mutant p150^glued (G59S). […] Spinal cord cultures were infected with virus at 14 DIV and the number of motor neurons was determined 2, 4, 6 or 8 days later (FIG. 4, panel a.).
We next determined if KW6002 could protect motor neurons from the toxic effects of mutant proteins. Spinal cord cultures were infected with viruses expressing wild type or mutant versions of SOD or p150^glued at 14 DIV, then treated with drug or vehicle for 4 days (FIG. 4, panel b.). […]

In the next data set the test system is Trk. Briefly: Immunoblot for phosphoTrk in spinal cord cultures. It counts as cell-based, rat. The method, then: as §1, §2, §3
[5] abbreviates: 6 and 24 hours, 100 μM enprofylline, 30 nM CEP-4416.
The mark [6] stands for this setting: 6 hours post drug administration.
The mark [7] stands for this setting: 48 hours post drug administration.

The structures appear in SMILES notation. Values joined by “and” are separate entries in the source; they are usually repeats but may differ in a detail not shown here. Identical values can stand only once. “Also recorded” adds a separate entry of the source.

Method for purified motor neurons: Embryonic Sprague-dawley rat spinal cord neurons were grown on previously established cortical astrocyte monolayers as previously described (Hu and Kalb, 2003). Briefly, the cerebral cortex of postnatal day (P) 1-3 rat pups was dissociated and plated on tissue culture plastic (Primeria) or laminin/polylysine coated glass overslips and maintained in Minimal Essential Media (10% horse serum, 10% fetal bovine serum) and 10 μM AraC was added for 1 day to arrest further proliferation when confluent. Under these conditions, no cortical neurons are present in these cultures. […]
The media was removed (and saved), cells were exposed to 100 μM kainic acid or vehicle in Locke's buffer for one hour, washed three times in Locke's buffer not containing kainic acid and the original media restored to each dish (Hu and Kalb, 2003). […] To quantify the number of stained cells, we counted the number of labeled cells from three non-overlapping fields using a 5× objective on a Zeiss upright Axioskop microscope and the value from one coverslip was averaged. […] When cell body diameter was assessed in select experiments, a reticule was introduced into an eye piece and the length of the long axis of a neuron noted. […]

`CCCn1c(=O)[nH]c(=O)c2[nH]cnc21` [enprofylline, 3-propylxanthine]: the “abundance of phosphoAKT” value is “decrease in the abundance of phosphoAKT and phosphoMAPK at 6 and 24 hours” with Akt (setting [5]); “robust reduction in phosphoTrk, phosphoMAPK and phosphoAKT” with Akt (24 hours post drug administration); “remained depressed” with Akt (setting [7]). Further, the “phosphorylation of Akt” value in the data set on Akt (setting [6]) was “decreases in the phosphorylation of Trk, MAP kinase and Akt”. For the same compound, in data set [1], the bioavailability entry is reported as “good”. In addition, the “abundance of phosphoMAPK” value with MAP kinase (setting [5]) is “decrease in the abundance of phosphoAKT and phosphoMAPK at 6 and 24 hours”; in the data set with MAP kinase (24 hours treatment), “robust reduction in phosphoTrk, phosphoMAPK and phosphoAKT”. Also, the “phosphorylation of MAP kinase” value in the data set with MAP kinase (setting [6]) is “decreases in the phosphorylation of Trk, MAP kinase and Akt”. The “phosphorylation of MAPK” value with MAP kinase (setting [7]) is “largely returned to baseline”. In the data set with purified motor neurons (24 hours pre-treatment, grown in BDNF+CT1), the “% motor neuron death after excitotoxic insult” value turned out to be 3±1%. The “death of motor neurons after kainic acid” value in the data set on purified motor neurons (pre-treated for 24 hrs) is “No death of motor neurons occurred”. For the same compound, the “IGF1-induced IGFR phosphorylation” value in data set [2] (24 hour pretreatment, then acute IGF1) is reported as “neither CEP-4416 nor enprofylline blunted the acute response; also recorded: undiminished by 24 hour pretreatment”. Besides, the “basal state of IGFR phosphorylation” value in data set [2] (24 hour treatment) is recorded as “Neither drug led to an alteration in the abundance in the phosphorylated species; also recorded: had no effect on the basal state of IGFR phosphorylation”. Besides, the “% motor neuron death, short term (acute) treatment” value in data set [3] (drug added 30 minutes prior to excitotoxic challenge, counted 24 hours later) is ~40% and 46±4%. In data set [3] (drug for 4 days (added 4 and 2 days) prior to 100 μM kainic acid 1 h, SMI-32(+) motor neurons counted 24 h later), the “excitotoxic motor neuron death” value is given as “completely blocked the loss of SMI(+) neurons; also recorded: no excitotoxic motor neuron death”. For the same compound, the “motor neuron survival / toxicity of G85R SOD” value in data set [4] is on record as “significantly greater number of motor neurons; also recorded: completely prevented the toxicity of mutant protein expression”. The “abundance of phosphoTrk” value in the data set on Trk (6, 24 or 48 hours, 100 μM enprofylline, 30 nM CEP-4416) was “decrease in the abundance of phosphoTrk at all time points”; with Trk (24 hours treatment) it was “robust reduction in phosphoTrk, phosphoMAPK and phosphoAKT”; with Trk (setting [7]) it was “decrease in phosphoTrk could still be detected”. For the same compound, the “phosphorylation of Trk” value in the data set with Trk (setting [6]) is “decreases in the phosphorylation of Trk, MAP kinase and Akt”.
